Patent US10052310B2, “Separase inhibitors and uses thereof” (Baylor College of Medicine, priority 2013, dated 2018)

Tests used:
Assay in all cases: MTT in vitro cytotoxicity assay
Type in all cases: cell-based
A549 = conditions: Homo sapiens, A549, Lung, 72 h, read-out: IC50 growth inhibition
Method: (§1) The inhibitory effect of Sepin-1 on cell growth was assayed using the 3-(4,5-dimethylthiazol-2yl)-2,5-diphenyl-tetrazolium bromide (MTT) colorimetric dye reduction method (Cancer Chemother. Pharmacol., 2006, 58, 13-23). One hundred thirty-five μl of exponentially growing cancer cells were plated at a density of 0.4-1.0×10^5 cells/well in a 96-well microtiter plate. After 16 h, Sepin-1 at specified concentrations was added to each well. After 72 h of continuous drug exposure, 15 μl of 5 mg/ml MTT was added to each well and the plates were incubated for 4 h at 37° C. Medium was replaced with 150 μl of DMSO to solubilize the formazan, and the optical density (OD) was measured at 550 nm using a microplate spectrophotometer (Anthos Analytical, Durham, N.C., USA). Cell viability was calculated by subtracting the background OD of media alone from the OD of test wells, then dividing by the OD of the control (untreated) wells. Replicates of 3 wells were used for each drug concentration. The in vitro cytotoxicity assay was repeated once and the IC50 reported was the average of two independent experiments.

HCT116 = conditions: Homo sapiens, HCT-116, HCT116, Colon, 72 h, read-out: IC50 growth inhibition
Method: as §1

HL60 = conditions: Homo sapiens, HL-60, HL60, Leukemia, 72 h, read-out: IC50 growth inhibition
Method: as §1

IMR-32 = conditions: Homo sapiens, IMR-32, Neuroblastoma, 72 h, read-out: IC50 growth inhibition
Method: as §1

JM1 = conditions: Homo sapiens, JM1, Leukemia, 72 h, read-out: IC50 growth inhibition
Method: as §1

Jurkat = conditions: Homo sapiens, Leukemia, 72 h, read-out: IC50 growth inhibition
Method: as §1

Raji = conditions: Homo sapiens, Leukemia, 72 h, read-out: IC50 growth inhibition
Method: as §1

SHEP = conditions: Homo sapiens, Neuroblastoma, 72 h, read-out: IC50 growth inhibition
Method: as §1

SK-BR-3 = conditions: Homo sapiens, SK-BR-3, Breast, 72 h, read-out: IC50 growth inhibition
Method: as §1

SK-N-AS = conditions: Homo sapiens, Neuroblastoma, 72 h, read-out: IC50 growth inhibition
Method: as §1

T47D = conditions: Homo sapiens, Breast, 72 h, read-out: IC50 growth inhibition
Method: as §1

TT = conditions: Homo sapiens, Thyroid, 72 h, read-out: IC50 growth inhibition
Method: as §1

CC1(C)[N+]([O-])=c2ccc([N+](=O)[O-])cc2=[N+]1[O-] [Sepin-1, 2,2-dimethyl-5-nitro-2H-benzimidazole-1,3 dioxide]
IC50 (A549): 53.1 µM | IC50 (HCT116): 16 µM | IC50 (HL60): 9 µM | IC50 (IMR-32): 4.8 µM | IC50 (JM1): 1000 nM | IC50 (Jurkat): 14 µM | IC50 (Raji): 4.4 µM | IC50 (SHEP): 62.5 µM | IC50 (SK-BR-3): 9 µM | IC50 (SK-N-AS): 17.1 µM | IC50 (T47D): 30.8 µM | IC50 (TT): 33.5 µM
